# Columns and labels:
# [1] = target: SPHK2 (human) (UniProt Q9NRA0); experiment: ADP detection assay-Luminescence; conditions: ATP 1 µM
# [2] = target: PIP4K2A (human) (UniProt P48426); experiment: ADP detection assay-Luminescence
# [3] = target: PIK3CB PIK3R1 (human) (UniProt P27986+P42338); experiment: ADP detection assay-Luminescence; conditions: ATP 1000 µM
# [4] = target: SPHK1 (human) (UniProt Q9NYA1); experiment: ADP detection assay-Luminescence; conditions: ATP 10 µM
# [5] = target: PIK3CA PIK3R1 (human) (UniProt P27986+P42336); experiment: ADP detection assay-Luminescence; conditions: ATP 1000 µM
# [6] = target: CHKA (human) (UniProt P35790); experiment: ADP detection assay-Luminescence; conditions: ATP 1 µM
# [7] = target: PIK3CG (human) (UniProt P48736); experiment: ADP detection assay-Luminescence
# [8] = target: DGKB (human) (UniProt Q9Y6T7); experiment: ADP detection assay-Luminescence
# [9] = target: NEK6 (human) (UniProt Q9HC98); experiment: radiometric filter-binding kinase assay; conditions: ATP 50 µM
# [10] = target: PIM2 (human) (UniProt Q9P1W9); experiment: radiometric filter-binding kinase assay; conditions: ATP 5 µM
# [11] = target: MAPKAPK5 (human) (UniProt Q8IW41); experiment: radiometric filter-binding kinase assay; conditions: ATP 20 µM
# [12] = target: RPS6KA3 KD1 KD2 (human) (UniProt P51812); experiment: radiometric filter-binding kinase assay; conditions: ATP 100 µM
# [13] = target: MAPK11 (human) (UniProt Q15759); experiment: radiometric filter-binding kinase assay; conditions: ATP 20 µM
# [14] = target: PAK7 (human) (UniProt Q9P286); experiment: radiometric filter-binding kinase assay; conditions: ATP 20 µM
# [15] = target: PKN2 (human) (UniProt Q16513); experiment: radiometric filter-binding kinase assay; conditions: ATP 5 µM
# [16] = target: MYLK (human) (UniProt Q15746); experiment: radiometric filter-binding kinase assay; conditions: ATP 50 µM
# [17] = target: FLT1 (human) (UniProt P17948); experiment: radiometric filter-binding kinase assay
# [18] = target: PAK6 (human) (UniProt Q9NQU5); experiment: radiometric filter-binding kinase assay; conditions: ATP 20 µM
# [19] = target: SYK (human) (UniProt P43405); experiment: radiometric filter-binding kinase assay; conditions: ATP 20 µM
# [20] = target: AURKB (human) (UniProt Q96GD4); experiment: radiometric filter-binding kinase assay; conditions: ATP 20 µM
# [21] = target: CaMK1 (human) (UniProt Q14012); experiment: radiometric filter-binding kinase assay; conditions: ATP 50 µM
# [22] = test system: SGK1 (human), O00141 [S422D]; experiment: radiometric filter-binding kinase assay; conditions: ATP 20 µM
# [23] = target: MELK (human) (UniProt Q14680); experiment: radiometric filter-binding kinase assay; conditions: ATP 50 µM
# [24] = target: IGF1R (human) (UniProt P08069); experiment: radiometric filter-binding kinase assay; conditions: ATP 5 µM
# [25] = target: PRKACA (human) (UniProt P17612); experiment: radiometric filter-binding kinase assay; conditions: ATP 20 µM
# [26] = target: PRKCA (human) (UniProt P17252); experiment: radiometric filter-binding kinase assay; conditions: ATP 20 µM
# [27] = target: CSNK1D (human) (UniProt P48730); experiment: radiometric filter-binding kinase assay; conditions: ATP 20 µM
# [28] = test system: RPS6KB1 (human), P23443 [T412E]; experiment: radiometric filter-binding kinase assay; conditions: ATP 100 µM
# [29] = target: TBK1 (human) (UniProt Q9UHD2); experiment: radiometric filter-binding kinase assay; conditions: ATP 50 µM
# SGK1 (human), O00141 [S422D], sequence (O00141 whole entry S422D, looked up): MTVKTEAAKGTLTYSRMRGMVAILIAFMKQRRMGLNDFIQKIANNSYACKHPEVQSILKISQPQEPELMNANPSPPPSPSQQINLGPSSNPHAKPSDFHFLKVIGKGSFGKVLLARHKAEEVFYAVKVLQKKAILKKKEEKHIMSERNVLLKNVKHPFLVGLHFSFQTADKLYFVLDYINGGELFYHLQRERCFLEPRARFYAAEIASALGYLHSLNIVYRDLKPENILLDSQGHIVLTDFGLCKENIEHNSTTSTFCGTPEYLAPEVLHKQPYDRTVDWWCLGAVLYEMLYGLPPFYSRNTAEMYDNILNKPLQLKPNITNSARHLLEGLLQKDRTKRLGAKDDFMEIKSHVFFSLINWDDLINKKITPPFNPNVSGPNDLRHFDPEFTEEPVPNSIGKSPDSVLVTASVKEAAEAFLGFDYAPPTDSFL
# FLT1 (human), sequence (P17948 whole entry, looked up): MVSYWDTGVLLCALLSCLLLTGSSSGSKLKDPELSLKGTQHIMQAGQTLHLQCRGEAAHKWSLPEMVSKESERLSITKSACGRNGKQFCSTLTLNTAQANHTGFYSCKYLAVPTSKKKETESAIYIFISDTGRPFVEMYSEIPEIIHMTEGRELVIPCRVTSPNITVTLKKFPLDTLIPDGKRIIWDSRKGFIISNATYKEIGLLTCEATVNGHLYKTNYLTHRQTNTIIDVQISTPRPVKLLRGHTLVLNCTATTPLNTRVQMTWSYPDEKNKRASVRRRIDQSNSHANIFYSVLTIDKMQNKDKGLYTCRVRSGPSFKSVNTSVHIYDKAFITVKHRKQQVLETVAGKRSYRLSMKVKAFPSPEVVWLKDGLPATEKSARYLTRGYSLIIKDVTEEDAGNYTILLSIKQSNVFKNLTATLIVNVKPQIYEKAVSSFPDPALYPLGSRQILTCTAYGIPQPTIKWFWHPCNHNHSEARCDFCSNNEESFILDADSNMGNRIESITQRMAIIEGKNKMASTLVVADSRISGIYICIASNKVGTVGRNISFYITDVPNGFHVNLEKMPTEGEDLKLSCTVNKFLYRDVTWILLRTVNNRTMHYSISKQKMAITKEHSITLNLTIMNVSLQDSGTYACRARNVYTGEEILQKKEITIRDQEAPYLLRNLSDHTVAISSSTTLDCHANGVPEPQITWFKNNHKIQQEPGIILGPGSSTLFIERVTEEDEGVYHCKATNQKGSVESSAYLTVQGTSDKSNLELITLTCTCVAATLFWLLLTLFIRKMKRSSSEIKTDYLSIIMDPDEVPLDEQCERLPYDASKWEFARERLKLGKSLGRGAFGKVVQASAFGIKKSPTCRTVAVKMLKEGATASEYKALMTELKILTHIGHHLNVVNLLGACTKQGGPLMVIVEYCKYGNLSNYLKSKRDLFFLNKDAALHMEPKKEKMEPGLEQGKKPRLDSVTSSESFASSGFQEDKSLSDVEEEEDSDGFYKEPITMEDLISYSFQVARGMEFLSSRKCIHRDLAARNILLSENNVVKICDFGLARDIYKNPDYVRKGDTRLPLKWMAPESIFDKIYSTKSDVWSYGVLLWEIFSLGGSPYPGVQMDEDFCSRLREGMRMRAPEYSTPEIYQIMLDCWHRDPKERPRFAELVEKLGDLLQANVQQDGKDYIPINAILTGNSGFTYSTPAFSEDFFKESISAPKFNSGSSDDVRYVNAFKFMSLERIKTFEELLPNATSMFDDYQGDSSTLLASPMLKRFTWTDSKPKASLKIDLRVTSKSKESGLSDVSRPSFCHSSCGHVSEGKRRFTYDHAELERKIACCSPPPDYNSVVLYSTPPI
# IGF1R (human), sequence (P08069 whole entry, looked up): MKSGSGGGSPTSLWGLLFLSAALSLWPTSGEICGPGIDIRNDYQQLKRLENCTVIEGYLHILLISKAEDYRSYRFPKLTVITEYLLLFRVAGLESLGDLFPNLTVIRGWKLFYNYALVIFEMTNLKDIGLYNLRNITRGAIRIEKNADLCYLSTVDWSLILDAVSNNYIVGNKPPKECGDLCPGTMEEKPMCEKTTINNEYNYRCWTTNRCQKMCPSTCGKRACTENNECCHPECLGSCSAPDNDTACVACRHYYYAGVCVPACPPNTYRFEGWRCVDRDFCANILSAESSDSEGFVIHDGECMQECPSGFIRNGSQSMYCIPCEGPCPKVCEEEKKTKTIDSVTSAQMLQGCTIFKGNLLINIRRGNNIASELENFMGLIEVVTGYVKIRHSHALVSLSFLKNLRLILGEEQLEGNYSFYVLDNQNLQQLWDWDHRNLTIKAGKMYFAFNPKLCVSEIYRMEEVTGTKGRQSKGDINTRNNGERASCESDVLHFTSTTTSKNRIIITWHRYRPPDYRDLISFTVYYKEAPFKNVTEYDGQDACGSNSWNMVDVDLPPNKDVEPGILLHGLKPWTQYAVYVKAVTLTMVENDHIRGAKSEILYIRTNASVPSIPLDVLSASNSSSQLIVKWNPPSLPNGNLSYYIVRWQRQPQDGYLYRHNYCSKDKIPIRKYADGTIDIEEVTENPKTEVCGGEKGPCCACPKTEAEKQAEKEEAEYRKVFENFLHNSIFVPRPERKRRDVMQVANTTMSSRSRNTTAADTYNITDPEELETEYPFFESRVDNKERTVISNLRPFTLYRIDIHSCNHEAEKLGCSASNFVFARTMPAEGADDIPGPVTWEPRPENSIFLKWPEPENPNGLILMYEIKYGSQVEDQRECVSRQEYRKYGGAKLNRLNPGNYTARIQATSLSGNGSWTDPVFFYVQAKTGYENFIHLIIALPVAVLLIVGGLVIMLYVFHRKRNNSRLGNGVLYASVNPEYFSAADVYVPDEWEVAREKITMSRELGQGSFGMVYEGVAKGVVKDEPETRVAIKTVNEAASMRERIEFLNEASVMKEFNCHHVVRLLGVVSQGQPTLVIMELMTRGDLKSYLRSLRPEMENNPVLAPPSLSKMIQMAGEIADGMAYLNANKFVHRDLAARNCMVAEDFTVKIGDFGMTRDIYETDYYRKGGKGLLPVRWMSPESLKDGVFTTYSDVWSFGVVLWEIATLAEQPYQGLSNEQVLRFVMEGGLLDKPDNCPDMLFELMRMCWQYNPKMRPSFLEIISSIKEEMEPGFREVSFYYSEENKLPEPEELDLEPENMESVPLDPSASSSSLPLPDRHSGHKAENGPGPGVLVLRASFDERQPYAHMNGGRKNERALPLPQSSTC
# MYLK (human), sequence (Q15746 whole entry, looked up): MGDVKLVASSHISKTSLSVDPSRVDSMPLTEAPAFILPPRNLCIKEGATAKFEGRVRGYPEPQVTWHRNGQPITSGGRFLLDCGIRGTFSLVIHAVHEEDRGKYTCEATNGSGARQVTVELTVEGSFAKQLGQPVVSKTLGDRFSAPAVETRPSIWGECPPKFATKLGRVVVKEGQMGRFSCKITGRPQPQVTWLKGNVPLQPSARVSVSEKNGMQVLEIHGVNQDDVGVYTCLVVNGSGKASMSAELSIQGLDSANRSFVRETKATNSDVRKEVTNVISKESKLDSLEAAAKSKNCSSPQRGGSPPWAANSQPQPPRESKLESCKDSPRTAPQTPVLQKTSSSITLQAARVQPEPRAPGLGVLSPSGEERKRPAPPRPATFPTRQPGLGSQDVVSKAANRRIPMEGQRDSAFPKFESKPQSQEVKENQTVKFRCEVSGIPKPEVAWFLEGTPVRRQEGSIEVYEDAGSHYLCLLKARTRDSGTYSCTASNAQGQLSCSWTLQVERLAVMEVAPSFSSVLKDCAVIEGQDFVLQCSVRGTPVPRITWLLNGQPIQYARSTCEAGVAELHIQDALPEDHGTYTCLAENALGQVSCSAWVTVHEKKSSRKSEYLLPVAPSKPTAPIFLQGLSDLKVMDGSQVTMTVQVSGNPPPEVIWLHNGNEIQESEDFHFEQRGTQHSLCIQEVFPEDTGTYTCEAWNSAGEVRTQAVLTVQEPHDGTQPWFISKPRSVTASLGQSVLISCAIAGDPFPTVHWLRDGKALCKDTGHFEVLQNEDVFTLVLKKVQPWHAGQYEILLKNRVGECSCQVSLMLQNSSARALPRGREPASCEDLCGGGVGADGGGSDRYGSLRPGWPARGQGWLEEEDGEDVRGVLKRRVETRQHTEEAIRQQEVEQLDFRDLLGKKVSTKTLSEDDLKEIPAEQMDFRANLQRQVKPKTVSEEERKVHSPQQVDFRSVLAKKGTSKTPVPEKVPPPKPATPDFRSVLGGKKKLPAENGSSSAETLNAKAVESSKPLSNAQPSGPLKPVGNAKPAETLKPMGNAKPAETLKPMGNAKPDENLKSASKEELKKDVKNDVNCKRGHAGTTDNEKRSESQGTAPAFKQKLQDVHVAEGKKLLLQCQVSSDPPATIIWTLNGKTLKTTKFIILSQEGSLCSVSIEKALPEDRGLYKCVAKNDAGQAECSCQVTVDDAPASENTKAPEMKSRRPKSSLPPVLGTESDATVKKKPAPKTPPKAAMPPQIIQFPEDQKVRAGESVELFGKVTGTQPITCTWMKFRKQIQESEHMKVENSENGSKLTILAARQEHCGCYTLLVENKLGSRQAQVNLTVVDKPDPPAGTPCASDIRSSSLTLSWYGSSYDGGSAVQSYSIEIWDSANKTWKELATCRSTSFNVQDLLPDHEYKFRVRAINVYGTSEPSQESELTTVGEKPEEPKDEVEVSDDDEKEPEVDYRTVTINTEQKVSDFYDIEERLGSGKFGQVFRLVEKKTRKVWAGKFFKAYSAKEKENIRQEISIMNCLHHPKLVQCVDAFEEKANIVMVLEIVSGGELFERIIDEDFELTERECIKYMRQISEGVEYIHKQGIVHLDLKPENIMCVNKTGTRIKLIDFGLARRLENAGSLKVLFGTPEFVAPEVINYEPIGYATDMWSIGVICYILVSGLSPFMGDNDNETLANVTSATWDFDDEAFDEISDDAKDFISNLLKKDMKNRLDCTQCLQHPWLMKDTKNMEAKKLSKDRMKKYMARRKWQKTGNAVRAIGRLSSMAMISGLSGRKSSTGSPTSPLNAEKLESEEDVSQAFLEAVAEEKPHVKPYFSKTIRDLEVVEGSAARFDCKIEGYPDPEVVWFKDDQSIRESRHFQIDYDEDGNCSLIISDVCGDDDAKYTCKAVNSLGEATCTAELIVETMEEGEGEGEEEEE
compound,measurement,setting,value
CCc1cncnc1N1CCN(Cc2nc3cc(C(F)(F)F)ccc3[nH]2)CC1,residual activity,[1]; compound 1.0 µM,100%
same,residual activity,[1]; compound 10.0 µM,98%
same,residual activity,[2]; compound 1.0 µM,101%
same,residual activity,[2]; compound 10.0 µM,100%
same,residual activity,[3]; compound 1.0 µM,103%
same,residual activity,[3]; compound 10.0 µM,115%
same,residual activity,[4]; compound 1.0 µM,99%
same,residual activity,[4]; compound 10.0 µM,103%
same,residual activity,[5]; compound 1.0 µM,107%
same,residual activity,[5]; compound 10.0 µM,117%
same,residual activity,[6]; compound 1.0 µM,98%
same,residual activity,[6]; compound 10.0 µM,94%
same,residual activity,[7]; compound 1.0 µM,101%
same,residual activity,[7]; compound 10.0 µM,102%
same,residual activity,[8]; compound 1.0 µM,98%
same,residual activity,[8]; compound 10.0 µM,99%
same,residual activity,[9]; compound 0.1 µM,88%
same,residual activity,[9]; compound 1.0 µM,75%
same,residual activity,[9]; compound 10.0 µM,80%
same,residual activity,[10]; compound 0.1 µM,90%
same,residual activity,[10]; compound 1.0 µM,90%
same,residual activity,[10]; compound 10.0 µM,100%
same,residual activity,[11]; compound 0.1 µM,114%
same,residual activity,[11]; compound 1.0 µM,97%
same,residual activity,[11]; compound 10.0 µM,87%
same,IC50,[12],9.2 µM
same,residual activity,[12]; compound 0.1 µM,100%
same,residual activity,[12]; compound 1.0 µM,86%
same,residual activity,[12]; compound 10.0 µM,45%
same,residual activity,[13]; compound 0.1 µM,88%
same,residual activity,[13]; compound 1.0 µM,89%
same,residual activity,[13]; compound 10.0 µM,97%
same,residual activity,[14]; compound 0.1 µM,100%
same,residual activity,[14]; compound 1.0 µM,88%
same,residual activity,[14]; compound 10.0 µM,87%
same,residual activity,[15]; compound 0.1 µM,95%
same,residual activity,[15]; compound 1.0 µM,86%
same,residual activity,[15]; compound 10.0 µM,84%
same,residual activity,[16]; compound 0.1 µM,95%
same,residual activity,[16]; compound 1.0 µM,79%
same,residual activity,[16]; compound 10.0 µM,87%
same,residual activity,"[17]; compound 0.1 µM, ATP 20 µM",97%
same,residual activity,"[17]; compound 0.1 µM, ATP 100 µM",100%
same,residual activity,"[17]; compound 1.0 µM, ATP 20 µM",83%
same,residual activity,"[17]; compound 1.0 µM, ATP 100 µM",65%
same,residual activity,"[17]; compound 10.0 µM, ATP 20 µM",37%
same,residual activity,"[17]; compound 10.0 µM, ATP 100 µM",55%
same,residual activity,[18]; compound 0.1 µM,99%
same,residual activity,[18]; compound 1.0 µM,83%
same,residual activity,[18]; compound 10.0 µM,86%
same,residual activity,[19]; compound 0.1 µM,121%
same,residual activity,[19]; compound 1.0 µM,100%
same,residual activity,[19]; compound 10.0 µM,91%
same,residual activity,[20]; compound 0.1 µM,89%
same,residual activity,[20]; compound 1.0 µM,87%
same,residual activity,[20]; compound 10.0 µM,49%
same,residual activity,[21]; compound 0.1 µM,106%
same,residual activity,[21]; compound 1.0 µM,94%
same,residual activity,[21]; compound 10.0 µM,78%
same,residual activity,[22]; compound 0.1 µM,106%
same,residual activity,[22]; compound 1.0 µM,74%
same,residual activity,[22]; compound 10.0 µM,65%
same,residual activity,[23]; compound 0.1 µM,94%
same,residual activity,[23]; compound 1.0 µM,101%
same,residual activity,[23]; compound 10.0 µM,87%
same,residual activity,[24]; compound 0.1 µM,72%
same,residual activity,[24]; compound 1.0 µM,95%
same,residual activity,[24]; compound 10.0 µM,82%
same,residual activity,[25]; compound 0.1 µM,84%
same,residual activity,[25]; compound 1.0 µM,83%
same,residual activity,[25]; compound 10.0 µM,34%
same,residual activity,[26]; compound 0.1 µM,119%
same,residual activity,[26]; compound 1.0 µM,106%
same,residual activity,[26]; compound 10.0 µM,62%
same,residual activity,[27]; compound 0.1 µM,96%
same,residual activity,[27]; compound 1.0 µM,93%
same,residual activity,[27]; compound 10.0 µM,71%
same,residual activity,[28]; compound 0.1 µM,58%
same,residual activity,[28]; compound 1.0 µM,23%
same,residual activity,[28]; compound 10.0 µM,7%
same,residual activity,[29]; compound 0.1 µM,100%
same,residual activity,[29]; compound 1.0 µM,89%
same,residual activity,[29]; compound 10.0 µM,93%

# From the kinase profiling compilation of Christmann-Franck et al. (2016)
